Data set [1] concerns Phakopsora pachyrhizi (the causal agent of Asian soybean rust). The experiment in a line: Test A: preventive spray on soybean seedlings, Asian soybean rust, visual disease rating. The format is in vivo. The following applies: Phakopsora pachyrhizi, 216 h, soybean seedlings, 100 = 100% disease control, 0 = no control; for pest or weed control at 10 µg/mL: test suspension 10 ppm, read-out: Test A disease control rating; for pest or weed control at 10 ppm: 10 ppm test suspension. An outline of the steps:
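Compound in acetone/water (50/50) with 250 ppm PEG400 sprayed to run-off on soybean seedlings; inoculated next day with Phakopsora pachyrhizi spores. Held 24 h at 22° C in saturated atmosphere, then 8 days in a 22° C growth chamber before visual rating as % disease control relative to controls.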

Data set [2] deals with Zymoseptoria tritici (the causal agent of wheat leaf blotch). The experiment in a line: Test B: preventive spray on wheat seedlings, wheat leaf blotch, visual disease rating. The format is in vivo. The following applies: Zymoseptoria tritici, 456 h, wheat seedlings; for pest or weed control at 250 µg/mL: test suspension 250 ppm; for pest or weed control at 250 ppm: 250 ppm test suspension, 100 = 100% disease control. An outline of the steps: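 This is a preventive test: spray application preceded Zymoseptoria tritici spore inoculation by one day. Test suspensions were in acetone/water with 250 ppm PEG400 surfactant, at the listed ppm rate. After 48 h saturated humidity at 24° C and 17 days at 20° C, visual ratings scored control from 0 to 100%.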

Data set [3] concerns Puccinia recondita f. sp. tritici (the causal agent of wheat leaf rust). The experiment in a line: Test C: preventive spray on wheat seedlings, wheat leaf rust, visual disease rating. The following applies: Puccinia recondita, 168 h, wheat seedlings; for pest or weed control at 10 µg/mL: test suspension 10 ppm, read-out: Test C disease control rating; for pest or weed control at 10 ppm: 10 ppm test suspension. The format is in vivo. In outline:
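Wheat seedlings sprayed to run-off with compound in acetone/water (50/50) with 250 ppm PEG400, then inoculated with spores the following day. After 24 h saturated humidity at 20° C. and 6 days in growth chamber at 20° C., disease rated visually as % control relative to untreated controls.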

In data set [4] the test system is Phakopsora pachyrhizi (the causal agent of Asian soybean rust). The data set is described as follows: Test E: compounds alone and mixtures sprayed on soybean seedlings, Asian soybean rust, observed and Colby-expected disease control. The class given is in vivo. The note with it: Phakopsora pachyrhizi. An excerpt:
The general protocol for preparing test compositions for TEST E was as follows: Compound 316, Compound 376, Compound 225, Compound 229, Compound 257, Compound 394, Compound 506, Compound 507, Compound 508, Compound 509, Compound 511, Compound 512, methyl N-[[5-[1-[2,6-difluoro-4-(1-methylethyl)phenyl]-1H-pyrazol-3-yl]-2-methylphenyl]methyl]carbamate (b54.11a), methyl N-[[5-[l-(4-cyclopropyl-2,6-difluorophenyl)-1H-pyrazol-3-yl]-2-methylphenyl]methyl]carbamate (b54.11d), ethyl 1-[[4-[[(1Z)-2-ethoxy-3,3,3-trifluoro-1-propen-1-yl]oxy]phenyl]methyl]-1H-pyrazole-4-carboxylate (b54.12a), ethyl 1-[[4-[[2-(trifluoromethyl)-1,3-dioxolan-2-yl]methoxy]phenyl]methyl]-1H-pyrazole-4-carboxylate (b54.13a), azoxystrobin, benzovindiflupyr, bixafen, chlorothalonil, cyproconazole, epoxiconazole, fenpropidin, fenpropimorph, fluindapyr, flutriafol, fluxapyroxad, inpyrfluxam, metominostrobin, picoxystrobin, prothioconazole, pydiflumetofen, pyraclostrobin, tebuconazole and trifloxystrobin were obtained as unformulated, technical-grade materials. Copper hydroxide and mancozeb was obtained as a formulated product marketed under the trademarks KOCIDE 3000 and MANZATE, respectively. Unformulated materials were first dissolved in acetone and then suspended at the desired concentration (in ppm) in acetone and purified water (50/50 mixture by volume) containing 250 ppm of the surfactant Trem® 014 (polyhydric alcohol esters). Formulated materials were dispersed in sufficient water to give the desired concentration, and neither organic solvent nor surfactant was added to the suspension. The resulting test mixtures were then used in TEST E. The tests were run on four individual plants and the results reported as the mean average of the four plants.
The presence of a synergistic effect between two active ingredients can be established with the aid of the Colby equation (see Colby, S. R. “Calculating Synergistic and Antagonistic Responses of Herbicide Combinations”, Weeds, (1967), 15, 20-22):
Using the method of Colby, the presence of a synergistic interaction between two active ingredients is established by first calculating the predicted activity, p, of the mixture based on activities of the two components applied alone. If p is lower than the experimentally established effect, synergism has occurred. In the equation above, A is the fungicidal activity in percentage control of one component applied alone at rate x. The B term is the fungicidal activity in percentage control of the second component applied at rate y. The equation estimates p, the expected fungicidal activity of the mixture of A at rate x with B at rate y if their effects are strictly additive and no interaction has occurred.
The test mixture was sprayed to the point of run-off on soybean seedlings. The following day the seedlings were inoculated with a spore suspension of Phakopsora pachyrhizi (the causal agent of Asian soybean rust) and incubated in a saturated atmosphere at 22° C. for 24 h and then moved to a growth chamber at 22° C. for 8 days, after which time visual disease ratings were made.
Results for Test E are given below in Tables A-1 through K-2. Each table corresponds to a set of evaluations performed together at the same time. In each table, a rating of 100 indicates 100% disease control and a rating of 0 indicates no disease control (relative to the controls). Columns labeled “Obsd” indicate the average of results observed from test run on four individual plants. Columns labeled “Exp” indicate the expected value for each treatment mixture using the Colby equation, as described above.

Where [5] appears, read: 100 = 100% disease control, 0 = no control.
[6] abbreviates: Compound 509 alone, read-out: Test E Obsd.
Where [7] appears, read: applied alone, read-out: Test E Obsd.

The structures appear in SMILES notation. Where two headings read alike, the source gives them in different places.

The term melting point denotes the temperature of the solid-liquid transition.

Take `O=C(NCCn1cccn1)c1coc(Cc2ccc(-c3noc(C(F)(F)F)n3)cc2)n1` [Compound 264, N-[2-(1H-pyrazol-1-yl)ethyl]-2-[[4-[5-(trifluoromethyl)-1,2,4-oxadiazol-3-yl]phenyl]methyl]-4-oxazolecarboxamide]: the melting point fell in the range of 125 to 126 °C. Besides, the pest or weed control at 10 µg/mL in data set [1] was found to be 100%. In addition, the pest or weed control at 250 µg/mL in data set [2] was 99%. In data set [3], the pest or weed control at 10 µg/mL was 99%.

Take `O=C(NCCC(F)(F)F)c1coc(Cc2ccc(-c3noc(C(F)(F)F)n3)cc2)n1` [Compound 330, 2-[[4-[5-(trifluoromethyl)-1,2,4-oxadiazol-3-yl]phenyl]methyl]-N-(3,3,3-trifluoropropyl)-4-oxazolecarboxamide]: the melting point is 104 to 105 °C. In addition, in data set [1], the pest or weed control at 10 µg/mL came out at 100%. In addition, the pest or weed control at 250 µg/mL in data set [2] stood at 96%. Also, the pest or weed control at 10 µg/mL in data set [3] was 100%.

Consider `CCOC(=O)c1cnn(COc2ccc(-c3noc(C(F)(F)F)n3)cc2)c1` [Compound 376, ethyl 1-[[4-[5-(trifluoromethyl)-1,2,4-oxadiazol-3-yl]phenoxy]methyl]-1H-pyrazole-4-carboxylate], for which the pest or weed control at 10 µg/mL in data set [1] worked out at 100%; in data set [3] it was 68%. In addition, the pest or weed control at 250 µg/mL in data set [2] came out at 49%. Moreover, the pest or weed control at 0.753 ppm amounted to 53% in data set [4] (Compound 376 alone, 0.753 ppm, read-out: Test E Obsd); 70% in data set [4] (Table A-2, Compound 376 0.753 ppm alone, read-out: Test E Obsd (disease control rating)); 15% in data set [4] (Table B-2, Compound 376 0.753 ppm alone, read-out: Test E Obsd (disease control rating)); 54% in data set [4] (Table C-2, Compound 376 0.753 ppm alone, read-out: Test E Obsd (disease control rating)); 67% in data set [4] (Table D-2, Compound 376 0.753 ppm alone, read-out: Test E Obsd (disease control rating)); 81% in data set [4] (Table E-2, Compound 376 0.753 ppm alone, read-out: Test E Obsd (disease control rating)). Further, the pest or weed control at 0.753 ppm in data set [4] (Table F-2, Compound 376 0.753 ppm alone, read-out: Test E Obsd (disease control rating)) was 68%; in data set [4] (Table G-2, Compound 376 0.753 ppm alone, read-out: Test E Obsd (disease control rating)), 52%; in data set [4] (Table H-2, Compound 376 0.753 ppm alone, read-out: Test E Obsd (disease control rating)) it was 62%. Moreover, the pest or weed control at 1.228 ppm in data set [4] (Compound 376 alone, 1.228 ppm, read-out: Test E Obsd) is 78%; in data set [4] (Table A-2, Compound 376 1.228 ppm alone, read-out: Test E Obsd (disease control rating)), 66%; in data set [4] (Table B-2, Compound 376 1.228 ppm alone, read-out: Test E Obsd (disease control rating)) it was 21%; in data set [4] (Table C-2, Compound 376 1.228 ppm alone, read-out: Test E Obsd (disease control rating)), 71%; in data set [4] (Table D-2, Compound 376 1.228 ppm alone, read-out: Test E Obsd (disease control rating)) it was 68%; in data set [4] (Table E-2, Compound 376 1.228 ppm alone, read-out: Test E Obsd (disease control rating)), 67%. Besides, the pest or weed control at 1.228 ppm in data set [4] (Table F-2, Compound 376 1.228 ppm alone, read-out: Test E Obsd (disease control rating)) came out at 77%; in data set [4] (Table G-2, Compound 376 1.228 ppm alone, read-out: Test E Obsd (disease control rating)), 37%; in data set [4] (Table H-2, Compound 376 1.228 ppm alone, read-out: Test E Obsd (disease control rating)) it was 81%.

`O=C(NCC(F)F)c1csc(Cc2ccc(-c3noc(C(F)(F)F)n3)cc2)n1` [Compound 505, N-(2,2-difluoroethyl)-2-[[4-[5-(trifluoromethyl)-1,2,4-oxadiazol-3-yl]phenyl]methyl]-4-thiazolecarboxamide] gave a melting point of 83 to 92 °C. Moreover, in data set [1], the pest or weed control at 10 ppm came out at 100%. Moreover, in data set [2], the pest or weed control at 250 ppm was found to be 100%. Moreover, in data set [3] (setting [5]), the pest or weed control at 10 ppm is 100%.

Take `O=C(NCC(F)(F)F)c1noc(Cc2ccc(-c3noc(C(F)(F)F)n3)cc2)n1` [Compound 506, N-(2,2,2-trifluoroethyl)-5-[[4-[5-(trifluoromethyl)-1,2,4-oxadiazol-3-yl]phenyl]methyl]-1,2,4-oxadiazole-3-carboxamide]: the melting point lay within 116 to 120 °C. Also, the pest or weed control at 250 ppm in data set [1] (250 ppm test suspension) stood at 100%. Moreover, the pest or weed control at 250 ppm in data set [2] was determined as 49%. Also, the pest or weed control at 250 ppm in data set [3] (250 ppm test suspension, 100 = 100% disease control, 0 = no control) came to 100%.

Compound `N#CCn1ccc(Cc2ccc(-c3noc(C(F)(F)F)n3)cc2)n1` [Compound 507, 3-[4-[(1-cyanomethyl-1H-pyrazol-3-yl)methyl]phenyl]-5-(trifluoromethyl)-1,2,4-oxadiazole] yielded a melting point of 111 to 114 °C. Moreover, in data set [1], the pest or weed control at 10 ppm was 100%. In data set [3] (setting [5]), the pest or weed control at 10 ppm came to 98%. For the same compound, the pest or weed control at 1.823 ppm in data set [4] (applied alone, 1.823 ppm, read-out: Test E Obsd) was 74%.

In turn, `Cn1nc(C(=O)NCC(F)(F)F)cc1Cc1ccc(-c2noc(C(F)(F)F)n2)cc1` [Compound 509, 1-methyl-N-(2,2,2-trifluoroethyl)-5-[[4-[5-(trifluoromethyl)-1,2,4-oxadiazol-3-yl]phenyl]methyl]-1H-pyrazole-3-carboxamide] displayed a melting point of 142 to 142.9 °C. Besides, in data set [1] (50 ppm test suspension), the pest or weed control at 50 ppm was 100%. Further, in data set [3] (50 ppm test suspension, 100 = 100% disease control, 0 = no control), the pest or weed control at 50 ppm stood at 99%. Further, in data set [4] (setting [6]), the pest or weed control at 2.796 ppm was found to be 36% and the pest or weed control at 5.625 ppm was 47%. In addition, in data set [4] (setting [7]), the pest or weed control at 2.796 ppm was determined as 54% and the pest or weed control at 5.625 ppm is 35%.

`N#CCc1cc(Cc2ccc(-c3noc(C(F)(F)F)n3)cc2)on1` [Compound 510, 5-[[4-[5-(trifluoromethyl)-1,2,4-oxadiazol-3-yl]phenyl]methyl]-3-isoxazoleacetonitrile] came in with a melting point of 101 to 104 °C. Moreover, in data set [1], the pest or weed control at 10 ppm turned out to be 100%. For the same compound, in data set [3] (setting [5]), the pest or weed control at 10 ppm came out at 84%.

These data come from patent US20240090503A1, “FUNGICIDAL OXADIAZOLES AND THEIR MIXTURES” (FMC CORPORATION, priority 2020, published 2024).
